Measurements as given in patent publication US20230348394A1, “COMPOSITIONS AND METHODS FOR TREATING MUSCULAR DYSTROPHIES” (The Regents of the University of California, priority 2020, published 2023).

System: SSPN-HiBiT protein (sarcospan)
Experiment: C2C12 SSPN-HiBiT protein reporter assay (12-well and 384-well format)
Type: cell-based, murine
Method: C2C12 SSPN-HiBiT myoblasts were seeded at 25,000 cells per well in 2 ml of growth media in 12 well-plates and incubated for 3 days. Upon reaching confluency, the growth media was replaced with 2 ml of differentiation media. At day 2 of differentiation, the media on the cells was replaced with 2 ml of differentiation media containing compounds at a final concentration of 5.5 μM in 0.06% DMSO. For vehicle control-treated cells, 0.06% DMSO was added to the cells. After 48 hrs the cells were washed with PBS and frozen for 2-24 hrs. The plates containing cells were thawed on ice and 100 μl of ice-cold modified RIPA buffer containing 1% Triton X-100, 0.05% DOC, 0.05% SDS, and Halt Protease Inhibitor was added to each well. Cells were scratched, transferred into 1.5 ml tubes, and centrifuged for 20 min at 16,000×g at 4° C. The cell lysates were transferred into new tubes. DC assay was performed on cell lysates to determine protein concentration. White walled, white bottom 384-well microplates (Greiner) were prefilled with 15 μl of PBS and 15 μl of cell lysates were added to each well in triplicate. Then 30 μl Nano-Glo HiBiT Lytic Detection working solution was added to each well and incubated for 30 min at RT with shaking. The luminescence was measured on the EnVision plate reader and the signal was normalized to protein concentration and signal from vehicle-treated controls.
C2C12 SSPN-HiBiT myoblasts were seeded at 500 cells per well in 50 μl of growth media in 384-well white, clear bottom microplates (Greiner) and incubated for 3 days. Upon reaching confluency, the growth media was replaced with 50 μl of differentiation media consisting of phenol-red free DMEM with 2% horse serum (Sigma-Aldrich) using an EL406 combination washer dispenser (Biotek). At day 2 of differentiation, the media on the cells was aspirated, left with a residual volume of 10 μl, and replaced with 30 μl of fresh differentiation media. 0.5 μl of small molecule in DMSO or DMSO alone (for vehicle and positive control wells) were added to each well using a Biomek Fx (Beckman). To ensure proper mixing of the DMSO, 50 μl of additional differentiation media was added to all wells except the positive control treated wells. The final concentration of compound in each treated well was 0.5-10 μM in 0.55% DMSO and 0.55% DMSO only for vehicle. After 48 hrs of incubation, the plate was washed with phenol red-free DMEM, aspirated, and left with a residual volume of 5 μl using EL406 combination washer dispenser. After the wash, 25 μl of differentiation media containing 12 μM DRAQ5 nuclear stain was added to reach a final concentration 10 μM in each well and incubated for 15 min at 37° C. with 5% CO2. The cells were imaged using ImageXpress Micro Confocal High Content Imaging System (Molecular Devices). The nuclei count of imaged cells were determined using a custom module analysis in MetaXpress Analysis software (Molecular Devices). After imaging and analysis, the plate was aspirated, left with a residual volume of 5 μl and placed at −80° C. for 2-24 hrs. The plate was thawed at RT and 25 μl of PBS was added, followed by 30 μl of Nano-Glo HiBiT Lytic Detection working solution prepared according manufacturer recommendations. Luminescence was measured using the EnVision plate reader and the signal of each well was normalized to nuclei count and signal from vehicle-treated controls.
In order to effectively test new analogues, we created method for detecting SSPN protein in cells, e.g., SSPN-HiBiT. SSPN-HiBiT based on a murine C2C12 cell line expressing endogenous SSPN protein with an N-term fusion protein called the HiBiT, an 11 amino acid subunit of a luciferase enzyme (FIG. 10a). The SSPN-HiBiT protein is quantified through addition of substrate and a larger subunit of the luciferase enzyme to catalyze the formation of luminescent signal. […]

CCN(CC)c1ccc2cc(C(=O)Nc3ccc(C(=O)N4CCCCCC4)cc3)c(=O)oc2c1 [OT-9]
SSPN-HiBiT reporter response (0.5-10 μM, 12-well and 384-well plate formats): dose-sensitive increases in SSPN | SSPN-HiBiT, fold change over vehicle (Table 1, *p<0.05): 2.29* fold change over vehicle
